Experiments:
Format in all cases: in vivo, human
[1] = NCT03131687: decrease appetite (reported event)
Procedure: (§1) Clinical Study (NCT03131687) Supporting Maintenance Dose Embodiments A 6-month (26-week) Phase 2 double-blind clinical study is designed to evaluate the safety, efficacy, and PK/PD of 4 dose levels (1 mg, 5 mg, 10 mg and 15 mg respectively) of tirzepatide once weekly by subcutaneous injection compared with dulaglutide 1.5 mg. once weekly (QW) and placebo QW in patients with T2DM who have inadequate glycemic control with diet and exercise with or without a stable dose of metformin. Tirzepatide dose is up-titrated to the maintenance dose using the following weekly dose increments:
(§2) The study also has a 4-week follow up period. In addition to safety and efficacy for treating T2DM, efficacy endpoints include the effect of tirzepatide on HbA1c, FBG, body weight, lipids, and waist circumference compared with placebo and with dulaglutide 1.5 mg. The study also evaluates the effect of tirzepatide on GI tolerability, hypoglycemia, hypersensitivity reactions, and pancreatic safety, as well as the development of treatment-emergent anti-drug antibodies. Model-based dose response analyses are performed to predict potential for significant HbA1c lowering and weight loss in longer studies. Statistical Analyses: Efficacy: The primary efficacy outcome of HbA1c change from baseline to the 26-week endpoint is analyzed using a Bayesian dose-response model. Analyses are performed on the intention to treat population (mITT) analysis set. Supportive analysis of the primary efficacy outcome for the mITT dataset are the model for post-baseline measures (MMRM) with body mass index (BMI) (<30 kg/m^2, ≥30 kg/m^2), metformin use, treatment, visit, and treatment-by-visit interaction as fixed effects, baseline HbA1c as a covariate, and patient as a random effect. The mean weight change from baseline at 12 and 26 weeks, along with the mean change from baseline of HbA1c at 12 weeks, is analyzed using similar dose-response models as the primary analyses. The percentages of patients with ≥5% or ≥10% body weight loss, reaching the HbA1c target of ≤6.5% or ≤7.0% at 26 weeks, or requiring rescue therapy are analyzed using logistic regression with fixed effects of treatment and strata, and baseline as a covariate. The changes from baseline in FBG (fasting blood glucose), SMBG (self-monitored blood glucose) levels, waist circumference, and mean percentage change in lipids from baseline to 12 and 26 weeks are analyzed using a similar MMRM to the one used for the primary analyses. Table Abbreviations: Dula 1.5 mg=dulaglutide 1.5 mg once weekly; LY means tirzepatide, and LY 1 mg=tirzepatide 1 mg once weekly; LY 5 mg=5 mg once weekly; LY 10 mg=escalation dose group tirzepatide once weekly with highest dose of 10 mg; LY 15 mg=escalation dose group of tirzepatide once weekly with highest dose 15 mg; LOCF=last observation-carried-forward; N=number of patients; pbo=placebo; Week 26=mITT on-treatment data at Week 26 excluding data after study drug discontinuation or rescue drug initiation; mITT=modified intent-to-treat; SD=standard deviation. For Table 4, n=number of patients in the population with baseline and post-baseline value at the specified time point. For Table 6, LY10 mg=escalation dose group tirzepatide, once weekly with highest dose of 10 mg; escalation dose: (5 mg weeks 0 and 1), LY15 mg=escalation dose group tirzepatide, once weekly with highest dose of 15 mg; escalation dose: (5 mg weeks 0 and 1; 10 mg weeks 2 to 5); N=number of patients in specified group, m=number of patients who experienced new event during interval, FolUp=follow up, T/Wk=Time range, (week) and %=means percent patients spending at least some time in treatment group who experienced new event during interval. For Table 7, n is the number of patients with events meeting the criteria; N is number of patients in the population; % is percent of patients in treatment group experiencing the event.

[2] = system: patients with T2DM who have inadequate glycemic control; experiment: NCT03131687: mean fasting glucose at Week 26; design: Mean change from baseline, fasting glucose: unit not given here
Procedure: as §1, §2

[3] = system: patients with T2DM; experiment: Biomarkers measured in clinical studies (eGFR, triglyceride)
Procedure: Clinically relevant biomarkers are measured in clinical studies to further support the use of tirzepatide for treating chronic kidney disease. […] Clinical study laboratory measurements support the use of tirzepatide in the treatment of chronic kidney disease. Clinically relevant biomarkers are measured to assess and support the use of tirzepatide in the treatment of atherosclerosis. Clinically relevant triglyceride levels decrease in all tirzepatide treatment groups. Clinical observations support that tirezepatide can be beneficial for use in the treatment of atherosclerosis.

[4] = system: patients with T2DM who have inadequate glycemic control; experiment: Phase 2 clinical study NCT03131687 (26 weeks): patients reaching HbA1c target
Procedure: as §1, §2

[5] = LY1 mg = tirzepatide 1 mg once weekly, N = 52
[6] = LY5 mg = tirzepatide 5 mg once weekly, N = 55
[7] = LY10 mg = tirzepatide once weekly, highest dose 10 mg, N = 51
[8] = LY15 mg = tirzepatide once weekly, highest dose 15 mg, N = 53
[9] = LY1 mg = tirzepatide 1 mg once weekly, N 44
[10] = LY5 mg = tirzepatide 5 mg once weekly, N 48
[11] = LY10 mg = tirzepatide once weekly, highest dose 10 mg, N 44
[12] = LY15 mg = tirzepatide once weekly, highest dose 15 mg, N 35
[13] = LY 5 mg = tirzepatide 5 mg once weekly, LOCF Week 26 (N = 55)
[14] = LY 5 mg = tirzepatide 5 mg once weekly, mITT Week 26 (N = 48)
[15] = LY 10 mg = tirzepatide once weekly, escalation to highest dose 10 mg, LOCF Week 26 (N = 51)
[16] = LY 10 mg = tirzepatide once weekly, escalation to highest dose 10 mg, mITT Week 26 (N = 44)
[17] = LY 15 mg = tirzepatide once weekly, escalation to highest dose 15 mg, LOCF Week 26 (N = 53)
[18] = LY 15 mg = tirzepatide once weekly, escalation to highest dose 15 mg, mITT Week 26 (N = 35)

With tirzepatide [LY] the “Decrease Appetite (reported): n, number of patients with events” value (“Decrease Appetite (reported): n, number” for short) [1, 5] was “n = 2;”, the “Decrease Appetite (reported): percent of patients in treatment group experiencing the event” value (shortened to “Decrease Appetite (reported): percent”) [1, 5] was 3.8% and the “Decrease Appetite (reported): n, number” value [1, 6] was “n = 10;”. The “Decrease Appetite (reported): percent” value [1, 6] was 18.2%, the “Decrease Appetite (reported): n, number” value [1, 7] was “n = 13;” and the “Decrease Appetite (reported): percent” value [1, 7] was 25.5%. For the same substance, the “Decrease Appetite (reported): n, number” value [1, 8] was “n = 10;”, the “Decrease Appetite (reported): percent” value [1, 8] was 18.9% and the “Mean change from baseline, fasting glucose” value (“Mean change from baseline” below) [2, 9] was −6.2. The “Mean glucose value (fasting)” value [2, 9] was 154.9 mg/dL, the “Mean change from baseline” value [2, 10] was −46.7 and the “Mean glucose value (fasting)” value [2, 10] was 126.5 mg/dL. The “Mean change from baseline” value [2, 11] was −66.9, the “Mean glucose value (fasting)” value [2, 11] was 104.8 mg/dL and the “Mean change from baseline” value [2, 12] was −56.8. The “Mean glucose value (fasting)” value [2, 12] was 110.3 mg/dL, the “fasting serum glucose (in words)” value ([2]; tirzepatide 5 mg, 10 mg, and 15 mg doses) was “significantly decrease fasting serum glucose compared with placebo and dulaglutide 1.5 mg” and the “triglyceride levels (in words)” value ([3]; all tirzepatide treatment groups) was “decrease”. For the same substance, the “eGFR (in words)” value ([3]; study NCT03131687, at any dosage) was “no decrease in eGFR was observed”, the “HbA1c change from baseline (in words)” value ([4]; 5 mg, 10 mg, and 15 mg doses of tirzepatide, significantly different from placebo and from dulaglutide 1.5 mg) was “significantly decrease HbA1c from baseline” and the “% of Patients Reaching HbA1c Target <5.7%” value [4, 13] was 3.6%. The “% of Patients Reaching HbA1c Target <6%” value [4, 13] was 25.5%, the “odds ratio vs. placebo, Patients Reaching HbA1c Target <5.7%” value [4, 13] was 1.6 and the “odds ratio vs. placebo, Patients Reaching HbA1c Target <6%” value [4, 13] was 11.8. The “% of Patients Reaching HbA1c Target <5.7%” value [4, 14] was 4.3%, the “% of Patients Reaching HbA1c Target <6%” value [4, 14] was 23.4% and the “odds ratio vs. placebo, Patients Reaching HbA1c Target <5.7%” value [4, 14] was 1.7. For the same substance, the “odds ratio vs. placebo, Patients Reaching HbA1c Target <6%” value [4, 14] was 10.5, the “% of Patients Reaching HbA1c Target <5.7%” value [4, 15] was 18.0% and the “% of Patients Reaching HbA1c Target <6%” value [4, 15] was 46.0%. The “odds ratio vs. placebo, Patients Reaching HbA1c Target <5.7%” value [4, 15] was 7.8, the “odds ratio vs. placebo, Patients Reaching HbA1c Target <6%” value [4, 15] was 28.7 and the “% of Patients Reaching HbA1c Target <5.7%” value [4, 16] was 20.9%. For the same substance, the “% of Patients Reaching HbA1c Target <6%” value [4, 16] was 51.2%, the “odds ratio vs. placebo, Patients Reaching HbA1c Target <5.7%” value [4, 16] was 7.9 and the “odds ratio vs. placebo, Patients Reaching HbA1c Target <6%” value [4, 16] was 34.5. For the same substance, the “% of Patients Reaching HbA1c Target <5.7%” value [4, 17] was 30.2%, the “% of Patients Reaching HbA1c Target <6%” value [4, 17] was 37.7% and the “odds ratio vs. placebo, Patients Reaching HbA1c Target <5.7%” value [4, 17] was 14.4. The “odds ratio vs. placebo, Patients Reaching HbA1c Target <6%” value [4, 17] was 22.0, the “% of Patients Reaching HbA1c Target <5.7%” value [4, 18] was 42.9% and the “% of Patients Reaching HbA1c Target <6%” value [4, 18] was 54.3%. The “odds ratio vs. placebo, Patients Reaching HbA1c Target <5.7%” value [4, 18] was 26.6 and the “odds ratio vs. placebo, Patients Reaching HbA1c Target <6%” value [4, 18] was 48.7.
